Assay results as given in PMC2920546, “Preclinical Pharmacology of BA-TPQ, a Novel Synthetic Iminoquinone Anticancer Agent” (Marine Drugs, 2010).

Assay: Stability of BA-TPQ in mouse plasma
Assay type: in vitro ADME
Conditions: for Amount Remaining: mouse plasma
Experimental: The stability of BA-TPQ was evaluated at two concentrations (0.5 and 5.0 μM). The compound was incubated under the following conditions: 37 °C for 0, 1, 2, 4, and 8 h; 4 °C for 0, 1, 4, 8, and 24 h; and −80 °C for 0, 1, 2, and 4 weeks. At the designated time points, the samples were extracted and analyzed using the established HPLC analytical method. The stability of the iminoquinone was assessed by comparing the initial concentration (time 0) with the final concentration following incubation of the compound at the noted temperatures, and expressing this difference as a percentage of the initial concentration.

Question: For `O=C1C(NCc2ccccc2)=CC2=NCCc3c[nH]c1c32` [BA-TPQ, 7-(benzylamino)-1,3,4,8-tetrahydropyrrolo[4,3,2-de]quinolin-8(1H)-one], which “Stability in mouse plasma (in words)” value (37 °C, 4 °C and −80 °C, 0.5 μM and 5.0 μM) is on record?
Answer: very stable

Question: And the “Amount Remaining” value (4 °C, 24 hr, 0.5 μM)?
Answer: 94%

Question: And the “Amount Remaining” value (4 °C, 24 hr, 5.0 μM)?
Answer: 117%

Question: What about the “Amount Remaining” value (37 °C, 8 hr, 0.5 μM) of the same compound?
Answer: 92%

Question: And the “Amount Remaining” value (37 °C, 8 hr, 5.0 μM)?
Answer: 114%

Question: And the “Amount Remaining” value (−80 °C, 4 weeks, 0.5 μM)?
Answer: 95%

Question: And the “Amount Remaining” value (−80 °C, 4 weeks, 5.0 μM)?
Answer: 100%
